# How the values were obtained:
# [1] = test system: U2OS cells; assay: Survival assay (MTT), U2OS; assay type: cell-based, human; details: Bone Osteoscarcoma, 72 hours, MTT
# Description: (§1) Cells were passed between 70 and 90% confluence.
# (§2) Cells were incubated with the drugs for 72 hours.
# [2] = test system: U87-MG cells; assay: Survival assay (MTT), U87-MG; details: MTT; for IC50: U87-MG, Glioma, Grade IV; for cytotoxicity to U87-MG cells (cell survival): up to 100 μM
# Description: (§5) Cell lines not mentioned above were grown in DMEM (Sigma, Cat.Nr. D6429) supplemented with 10% Fetal Bovine Serum and 100 U/ml penicillin 100 U/ml streptomycin. All cells were maintained in a 5% CO2, humidified, water-jacketed incubator at 37° C. Cells were passed between 70 and 90% confluence.
# (§6) In a 96-well plate, 4000 cells in 100 μl of corresponding medium were seeded. The following day, drugs, diluted in DMSO, were added in 8 concentrations in triplicate. Drugs were added as a 4-fold dilution series starting from 100 μM. Cells were incubated with the drugs for 72 hours. Cell proliferation was assessed by MTT assay according to the manufacturer's protocol (ATCC, Cat. Nr. 30-1010K). Cell survival was normalized to the survival of cells treated with DMSO only. Experiment was performed three times, data represent mean of nine wells±SEM.
# In a 96-well plate, 4000 cells in 100 μl of corresponding medium were seeded. The following day, drugs, diluted in DMSO, were added in triplicate at a concentration of 100, 25, 6.25, 1.56, 0.39, 0.1, 0.02, or 0.006 ┘M. Cells were incubated with the drugs for 72 hours. Cell proliferation was assessed by MTT assay according to the manufacturer's protocol (ATCC, Cat. Nr. 30-1010K). Cell survival was normalized to the survival of cells treated with DMSO only. Experiment was performed three times, data represent mean of nine wells±SEM.
# [3] = test system: U937 cells; assay: Survival assay (MTT), U937; assay type: cell-based, human; details: U937, Lymophoma, 72 hours, MTT
# Description: as §1, §2
# [4] = test system: SK-OV-3 cells; assay: Survival assay (MTT), SK-OV-3; assay type: cell-based, human; details: SK-OV-3, Ovarian Adenocarcinoma, 72 hours, MTT
# Description: as §1, §2
# [5] = test system: HeLa cells; assay: Survival assay (MTT), HeLa; details: for IC50: HeLa
# Description: as §5, §6
# HeLa cells, grown as described above (Materials and Methods), were treated with 5-hydroxymethyl-2′-deoxycytidine and 5-formyl-2′-deoxycytidine. After three days of treatment with these compounds, cell survival was assessed as described above (Materials and Methods).
# After three days of treatment with these compounds at a concentration of 100, 25, 6.25, 1.56, 0.39, 0.1, 0.02, or 0.006 μM, cell survival was assessed by MTT assay as described above (Materials and Methods).
# [6] = test system: human cancer cell lines; assay: Survival assay, range of human cancer cell lines; assay type: cell-based; details: cell lines of Table 1
# Description: as §2
# With the knowledge that 5-formyl-2′-deoxycytidine is cytotoxic to cervical carcinoma (HeLa) cells, the study was expanded in two directions: (i) a further compound was assessed: 5-carboxyl-2′-deoxycytidine; and (ii) their cytotoxic effects against a wide range of human cancer cell lines was assessed (Table 1).
# [7] = test system: MIA PaCa-2 cells; assay: Survival assay (MTT), MIA PaCa-2; assay type: cell-based, human; details: MIA PaCa-, Pancreatic Carcinoma, 72 hours, MTT
# Description: as §1, §2
# [8] = test system: HCT-116 cells; assay: Survival assay (MTT), HCT-116; assay type: cell-based, human; details: HCT-116, Colon Carcinoma, 72 hours, MTT
# Description: as §2
# [9] = test system: A375 cells; assay: Survival assay (MTT), A375; assay type: cell-based, human; details: A375, Malignant Melanoma, 72 hours, MTT
# Description: as §1, §2
# [10] = test system: A-498 cells; assay: Survival assay (MTT), A-498; assay type: cell-based, human; details: A-498, Kidney Carcinoma, 72 hours, MTT
# Description: as §1, §2
# [11] = test system: 22Rv1 cells; assay: Survival assay (MTT), 22Rv1; assay type: cell-based, human; details: 22Rv1, Prostate Carcinoma, 72 hours, MTT
# Description: as §1, §2
# [12] = test system: HL-60 cells; assay: Survival assay (MTT), HL-60; assay type: cell-based, human; details: HL-60, Acute Promyelocytic Leukemia, 72 hours, MTT
# Description: as §1, §2
# [13] = test system: A549 cells; assay: Survival assay (MTT), A549; assay type: cell-based, human; details: A549, Lung Carcinoma, 72 hours, MTT
# Description: as §1, §2
# [14] = test system: NCI-N87 cells; assay: Survival assay (MTT), NCI-N87; assay type: cell-based, human; details: NCI-N87, Gastric Carcinoma, 72 hours, MTT
# Description: as §1, §2
# [15] = test system: MCF-7 cells; assay: Survival assay (MTT), MCF-7; assay type: cell-based, human; details: MCF-7, Epithelial Adenocarcinoma (Breast), 72 hours, MTT
# Description: as §1, §2
# [16] = test system: G7 cells; assay: Survival assay (MTT), G7; assay type: cell-based, human; details: G7, Glioma, Grade IV, 72 hours
# Description: (§3) Primary glioma neural stem (GNS) cells (G7, G14, G144, G166) were cultured on poly-D-lysine (Merck Millipore, Cat. Nr. A-003-E) and laminin (R&D Systems, Cat.Nr. 3446-005-01) coated plates in neural stem cell medium (50% DMEM-F12 (Thermofisher, Cat. Nr. 21041025), 50% neurobasal medium (Thermofisher, Cat. Nr. 10888-022), N2 (Life Technologies, Cat. Nr. A-003-E) and B27 supplements (Life Technologies, Cat.Nr. 12587010), 1 mM sodium pyruvate (Life Technologies, Cat.Nr. 11360-039), 2 mM glutamax (Life Technologies, Cat. Nr. 35050038), 1 mM HEPES (Fisher Scientific, Cat. Nr. BP299-1), 0.1 mM β-mercaptoethanol (Life Technologies, Cat. Nr. 31350010), 1× nonessential amino acids (Life Technologies, Cat. Nr. 11140-035), 0.006% bovine serum albumin (Sigma, Cat. Nr. A8577-10ML), 4 μg/ml heparin (Sigma, Cat. Nr. H3149-25KU), 100 U/ml penicillin, 100 μg/ml streptomycin, 20 ng/ml hEGF (R&D Systems, Cat. Nr. 236-EG-200), 10 ng/ml bFGF (Peprotech, Cat. Nr. 100-18B).
# as §2
# [17] = test system: SF188 cells; assay: Survival assay (MTT), SF188; assay type: cell-based, human; details: SF188, Glioma, Grade IV, 72 hours
# Description: as §1, §2
# [18] = test system: Buffy C cells; assay: Survival assay (MTT), Buffy C; assay type: cell-based, human; details: Normal, Bone Marrow, 72 hours
# Description: as §1, §2
# (§4) The present inventors further investigated the extent to which these compounds kill normal human cells; low cytotoxicity against normal human cells is advantageous property for anti-cancer agents. The cytotoxicity of these compounds in various normal human cell lines was therefore investigated (Table 3). Cells were grown and the survival assay was performed as described above (Materials and Methods).
# [19] = test system: HaCat cells; assay: Survival assay (MTT), HaCat; assay type: cell-based, human; details: Normal, Keratinocytes, 72 hours
# Description: as §1, §2, §4
# [20] = test system: DIPG007 cells; assay: Survival assay (MTT), DIPG007; assay type: cell-based, human; details: DIPG007, Glioma, Grade IV, 72 hours
# Description: as §1, §2
# [21] = test system: G14 cells; assay: Survival assay (MTT), G14; assay type: cell-based, human; details: G14, Glioma, Grade IV, 72 hours
# Description: as §3, §2
# [22] = test system: G166 cells; assay: Survival assay (MTT), G166; assay type: cell-based, human; details: G166, Glioma, Grade IV, 72 hours
# Description: as §3, §2
# [23] = test system: G30 cells; assay: Survival assay (MTT), G30; assay type: cell-based, human; details: G30, Glioma, Grade IV, 72 hours
# Description: as §1, §2
# [24] = test system: Arpe19 cells; assay: Survival assay (MTT), Arpe19; assay type: cell-based, human; details: Arpe19, Normal, Ectoderm; 72 hours, MTT
# Description: as §2, §4
# [25] = test system: U3013 cells; assay: Survival assay (MTT), U3013; assay type: cell-based, human; details: U3013, Glioma, Grade IV, 72 hours
# Description: as §1, §2
# [26] = test system: G26 cells; assay: Survival assay (MTT), G26; assay type: cell-based, human; details: G26, Glioma, Grade IV, 72 hours
# Description: as §1, §2
# [27] = test system: CB152 cells; assay: Survival assay (MTT), CB152; assay type: cell-based, human; details: CB152, Glioma, Grade IV, 72 hours
# Description: as §1, §2
# [28] = test system: Glioma, Grade IV cell lines; assay: Survival assay, panel of 12 patient derived Glioma, Grade IV cell lines; assay type: cell-based, human; details: of 12 cell lines of Table 2
# Description: as §3, §1, §2
# Due to lack of activity in previous assays, 5-carboxyl-2′-deoxycytidine was not included in this more rigorous analysis.
# [29] = test system: Buffy M cells; assay: Survival assay (MTT), Buffy M; assay type: cell-based, human; details: Normal, Bone Marrow, 72 hours
# Description: as §1, §2, §4
# [30] = test system: MRC5 cells; assay: Survival assay (MTT), MRC5; assay type: cell-based, human; details: MRC5, Normal, Lung; 72 hours, MTT
# Description: as §1, §2, §4
# [31] = test system: G144 cells; assay: Survival assay (MTT), G144; assay type: cell-based, human; details: G144, Glioma, Grade IV, 72 hours
# Description: as §3, §2
# [32] = test system: Buffy A cells; assay: Survival assay (MTT), Buffy A; assay type: cell-based, human; details: Normal, Bone Marrow, 72 hours
# Description: as §1, §2, §4
# [33] = test system: U3017 cells; assay: Survival assay (MTT), U3017; assay type: cell-based, human; details: U3017, Glioma, Grade IV, 72 hours
# Description: as §1, §2
# [34] = test system: glioblastoma multiforme; details: Phase II trials (NCI 06-C-0064E); cited from earlier work
compound,measurement,setting,value
"Nc1nc(=O)n([C@H]2C[C@H](O)[C@@H](CO)O2)cc1C(=O)O [2d5caC, 5-carboxy-2′-deoxycytidine, reference compound]",IC50,[1]; Homo sapiens,> 25 µM
same,IC50,"[2]; Homo sapiens, U-87 MG, 72 h",> 25 µM
same,IC50,"[3]; Homo sapiens, U-937",> 25 µM
same,IC50,[4]; Homo sapiens,> 25 µM
same,IC50,"[5]; Homo sapiens, 72 h",> 25 µM
same,cytotoxicity in the cancer cell lines evaluated,[6],no cytotoxic properties
same,IC50,"[7]; Homo sapiens, MIA PaCa-2",> 25 µM
same,IC50,"[8]; Homo sapiens, HCT-116, 72 h",> 25 µM
same,IC50,"[9]; Homo sapiens, A-375",> 25 µM
same,IC50,"[10]; Homo sapiens, A498, 72 h",> 25 µM
same,IC50,"[11]; Homo sapiens, 22Rv1, 72 h",> 25 µM
same,IC50,[12]; Homo sapiens,> 25 µM
same,IC50,"[13]; Homo sapiens, A549, 72 h",> 25 µM
same,IC50,[14]; Homo sapiens,> 25 µM
same,IC50,"[15]; Homo sapiens, MCF7",> 25 µM
CC(=O)OCc1cn([C@H]2C[C@H](O)[C@@H](CO)O2)c(=O)[nH]c1=O [5-acetoxymethyl-2′-deoxyuridine],cytotoxicity to U87-MG cells (cell survival),[2]; 72 hours,unable to survive
"Nc1nc(=O)n([C@H]2C[C@H](O)[C@@H](CO)O2)cc1Br [5-bromo-2′-deoxycytidine, reference compound]",IC50,"[2]; Homo sapiens, U-87 MG, 72 h",> 25 µM
"Nc1nc(=O)n([C@H]2C[C@H](O)[C@@H](CO)O2)cc1Cl [5-chloro-2′-deoxycytidine, reference compound]",IC50,"[2]; Homo sapiens, U-87 MG, 72 h",> 25 µM
Nc1nc(=O)n([C@H]2C[C@H](O)[C@@H](COP(=O)(O)OP(=O)(O)OP(=O)(O)O)O2)cc1C=O [5-formyl-2′-deoxycytidine-5′-triphosphate],cytotoxicity to U87-MG cells (cell survival),[2]; 72 hours,cytotoxic
same,cytotoxicity to HeLa cells (cell survival),"[5]; three days of treatment, MTT, up to 100 μM",unable to survive
Nc1nc(=O)n([C@H]2C[C@H](O)[C@@H](COP(=O)(O)OP(=O)(O)OP(=O)(O)O)O2)cc1CO [5-hydroxymethyl-2′-deoxycytidine-5′-triphosphate],cytotoxicity to U87-MG cells (cell survival),[2]; 72 hours,cytotoxic
"Nc1nc(=O)n([C@H]2C[C@H](O)[C@@H](CO)O2)cc1I [5-iodo-2′-deoxycytidine, reference compound]",IC50,"[2]; Homo sapiens, U-87 MG, 72 h",> 25 µM
COCc1cn([C@H]2C[C@H](O)[C@@H](CO)O2)c(=O)[nH]c1=O [5-methoxymethyl-2′-deoxyuridine],cytotoxicity to U87-MG cells (cell survival),[2]; 72 hours,unable to survive
"O=c1[nH]cc(F)c(=O)[nH]1 [5fU, 5-flurouracil, reference compound]",IC50,[1],2.89 µM
same,IC50,[16],6.46 µM
same,IC50,[2]; 72 hours,> 25 µM
same,IC50,[3],7.45 µM
same,IC50,[4],3.76 µM
same,IC50,[17],3.88 µM
same,IC50,[18],> 25 µM
same,IC50,[19],0.523 µM
same,IC50,"[5]; Cervical Adenocarcinoma, 72 hours, MTT",> 25 µM
same,IC50,[20],4.3 µM
same,IC50,[21],11.6 µM
same,IC50,[22],4.81 µM
same,IC50,[7],8.1 µM
same,IC50,[23],23.3 µM
same,IC50,[8],3.54 µM
same,IC50,[24],> 25 µM
same,IC50,[25],4.14 µM
same,IC50,[9],7.87 µM
same,IC50,[26],7.12 µM
same,IC50,[10],2.37 µM
same,IC50,[27],6.5 µM
same,"number of Glioma, Grade IV cell lines killed",[28],11 of 12
same,IC50,[11],> 25 µM
same,IC50,[29],> 25 µM
same,IC50,[30],> 25 µM
same,IC50,[31],6.8 µM
same,IC50,[32],> 25 µM
same,IC50,[12],> 25 µM
same,IC50,[13],1.85 µM
same,IC50,[33],3.92 µM
same,IC50,[14],1.52 µM
same,IC50,[15],> 25 µM
"Avastin (RTM): bevacizumab, an angiogenesis inhibitor with multiple oncology indications",overall survival benefit,[34],did not yield an overall survival benefit

# From US12605397B2, “Deoxy-cytidine or uridine derivatives for use in cancer therapies” (HEMISPHERIAN AS, priority 2019, dated 2026)
